Values of other authors, collected in paper PMC9952374, “De Novo Design of Imidazopyridine-Tethered Pyrazolines That Target Phosphorylation of STAT3 in Human Breast Cancer Cells” (Bioengineering, 2023).

Tests used:
breast cancer cells = test system: breast cancer cells; parameters: method as in PMID 33126089; conditions: read-out: IC50 anti-proliferation against breast cancer cells; cited from earlier work
[1] = test system: IL-6-induced STAT3 phosphorylation in patient-derived HGG cells; parameters: method as in PMID 31361777; conditions: cited from earlier work
[2] = test system: phospho-STAT3 in hepatocellular carcinoma cells; parameters: method as in PMID 30261753; conditions: cited from earlier work

## COc1cc(Nc2cc(-c3ccnn3C)cc3cc(C(C)=O)oc23)cc(OC)c1 [Compound C6]
Breast cancer cells
  IC50: 160 nM

## CC(C)CCc1cc(-c2ccc(Br)cc2)n(-c2ccc(S(N)(=O)=O)cc2)n1 [MNS1-Leu]
[1]
  Akt, STAT1, JAK2, or ERK1/2 phosphorylation: without adversely affecting
  IL-6-induced STAT3 phosphorylation: inhibited

## COc1cc(-c2cc3ccccc3[nH]2)[nH]c1-c1nc2cc(Br)cnc2[nH]1 [compound 16]
[2]
  level of phospho-STAT3 and downstream signaling cascades: reduce the level
